Values of other authors in US11318156B2, “Solid injectable veterinary implants comprising monocyclic lactone” (CEVA SANTE ANIMALE, priority 2017, dated 2022).
Read-outs that look alike come from different tables or passages of the source.

Assays:
[1] = 14-week oral study
[2] = not given; remark: listed apart in the source

ivermectin
No Observable Effect Level (NOEL) ([1]; beagle dogs): 0.5 mg/kg bw | observed effects ([1]; beagle dogs, 1.0 and 2.0 mg/kg bw): mydriasis and slight weight loss | observed effects ([1]; four dogs in the 2.0 mg/kg bw group, killed prior to end of study): tremors, ataxia, anorexia and dehydration | average increase in plasma levels (four-fold increase in the dose (0.5 to 2.0 mg/kg bw oral)): eight-fold | time to steady-state of ivermectin (B1a) in plasma (oral 0.5 and 2.0 mg/kg bw, 36-day study): about three weeks | share of collie dogs highly sensitive to ivermectin [2]: approximately 30%
